Measured values taken from ChEMBL document CHEMBL1201862, “PubChem BioAssay data set” (2004).
Activity calls are given as the source filed them.

Key:
[1] = target: Epstein-Barr nuclear antigen 1 (Epstein-Barr virus (strain B95-8) (HHV-4) (Human herpesvirus 4), UniProt P03211); experiment: inhibition of EBV nuclear antigen 1 DNA binding – biochemical, fluorescence polarization, 1536-well, dose response (AID 2381); parameters: species or system human gammaherpesvirus 4;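 note: fluorescence polarization of a Cy5 DNA probe bound by EBNA-1 protein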
[2] = target: T1, Calpain-2 catalytic subunit (Sus scrofa, UniProt P43367); experiment: m-calpain protease blockers, concentration series – biochemical, fluorogenic peptide substrate, dose response (AID 1420); assay type: functional
T1 sequence (P43367 whole entry): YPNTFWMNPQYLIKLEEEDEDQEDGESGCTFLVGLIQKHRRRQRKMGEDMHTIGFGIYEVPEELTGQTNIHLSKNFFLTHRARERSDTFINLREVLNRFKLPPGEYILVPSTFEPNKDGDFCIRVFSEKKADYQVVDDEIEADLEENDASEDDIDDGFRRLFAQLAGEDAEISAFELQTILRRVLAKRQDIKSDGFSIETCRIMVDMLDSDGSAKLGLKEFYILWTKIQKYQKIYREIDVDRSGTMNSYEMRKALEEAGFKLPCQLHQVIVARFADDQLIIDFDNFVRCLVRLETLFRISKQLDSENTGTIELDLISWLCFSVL

[3] = target: Lytic switch protein BZLF1 (Epstein-Barr virus (strain B95-8) (HHV-4) (Human herpesvirus 4), UniProt P03206); experiment: inhibition of BZLF1 ZTA DNA binding – biochemical, fluorescence polarization, Epstein-Barr virus, 1536-well, counter-screen for EBNA-1 inhibitor project, dose response (AID 2377); parameters: species or system human gammaherpesvirus 4;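 note: fluorescence polarization of Cy5-labelled ZRE DNA probe bound by purified Zta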
Bcl-2-like protein 10 = Bcl-2-like protein 10 (Homo sapiens, UniProt Q9HD36); experiment: Concentration-response of Bcl-B inhibitors by biochemical FP with TR3 (AID 1243); assay type: functional
Estrogen receptor = target: T2, Estrogen receptor (Homo sapiens, UniProt P03372); experiment: ERα coactivator recruitment enhancers – biochemical, TR-FRET, ERα LBD, dose response (AID 737)
T2 sequence (P03372 whole entry): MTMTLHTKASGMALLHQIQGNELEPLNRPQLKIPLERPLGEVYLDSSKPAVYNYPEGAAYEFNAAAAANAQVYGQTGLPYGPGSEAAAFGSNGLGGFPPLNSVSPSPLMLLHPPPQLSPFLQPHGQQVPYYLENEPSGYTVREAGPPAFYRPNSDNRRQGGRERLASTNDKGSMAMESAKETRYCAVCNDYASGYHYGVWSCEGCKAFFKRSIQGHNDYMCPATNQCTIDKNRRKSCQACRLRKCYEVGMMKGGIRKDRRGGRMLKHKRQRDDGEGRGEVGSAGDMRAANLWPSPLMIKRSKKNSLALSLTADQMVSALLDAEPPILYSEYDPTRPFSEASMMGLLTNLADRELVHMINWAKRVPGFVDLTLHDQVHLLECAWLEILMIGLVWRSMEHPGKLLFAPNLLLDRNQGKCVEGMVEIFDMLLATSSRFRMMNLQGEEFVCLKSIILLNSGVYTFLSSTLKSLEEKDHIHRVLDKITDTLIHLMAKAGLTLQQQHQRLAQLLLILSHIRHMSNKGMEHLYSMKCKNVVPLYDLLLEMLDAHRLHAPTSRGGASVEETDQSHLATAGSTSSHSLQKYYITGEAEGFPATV

[4] = target: T3, Corticotropin-releasing factor receptor 2/Corticotropin-releasing factor-binding protein (Homo sapiens, UniProt P24387+Q13324); experiment: Dose Response confirmation of uHTS hits for small molecule antagonists of the CRF-binding protein and CRF-R2 receptor complex.; assay type: functional; conditions: read-out: IC50_Mean
T3 sequence (Q13324 whole entry): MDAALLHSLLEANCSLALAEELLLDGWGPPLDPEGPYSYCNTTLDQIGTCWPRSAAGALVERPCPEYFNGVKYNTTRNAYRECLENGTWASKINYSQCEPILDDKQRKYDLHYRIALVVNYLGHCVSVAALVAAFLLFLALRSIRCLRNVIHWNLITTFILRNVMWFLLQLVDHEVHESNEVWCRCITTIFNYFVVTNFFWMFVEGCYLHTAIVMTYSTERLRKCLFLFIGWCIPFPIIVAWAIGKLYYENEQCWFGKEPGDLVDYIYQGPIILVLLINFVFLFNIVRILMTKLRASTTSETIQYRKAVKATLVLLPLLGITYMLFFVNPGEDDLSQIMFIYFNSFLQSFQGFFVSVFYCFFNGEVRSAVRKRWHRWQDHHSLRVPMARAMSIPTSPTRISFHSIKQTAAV
T3 sequence (P24387 whole entry): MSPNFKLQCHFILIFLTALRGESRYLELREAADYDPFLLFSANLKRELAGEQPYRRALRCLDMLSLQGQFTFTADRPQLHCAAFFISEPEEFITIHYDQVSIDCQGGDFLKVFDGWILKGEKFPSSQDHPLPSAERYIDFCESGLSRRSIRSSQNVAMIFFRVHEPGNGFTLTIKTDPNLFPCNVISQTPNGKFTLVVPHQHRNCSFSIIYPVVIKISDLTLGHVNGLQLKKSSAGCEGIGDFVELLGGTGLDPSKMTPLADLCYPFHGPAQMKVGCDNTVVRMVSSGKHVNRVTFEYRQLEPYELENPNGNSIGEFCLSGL

[5] = target: T3, Corticotropin-releasing factor receptor 2/Corticotropin-releasing factor-binding protein; experiment: activators of CRF receptor 2 with binding protein – uHTS hits, confirmation (AID 602473); assay type: functional; conditions: read-out: EC50_Mean

Bcl-2-like protein 10, sequence (Q9HD36 whole entry, the tested form may be a part): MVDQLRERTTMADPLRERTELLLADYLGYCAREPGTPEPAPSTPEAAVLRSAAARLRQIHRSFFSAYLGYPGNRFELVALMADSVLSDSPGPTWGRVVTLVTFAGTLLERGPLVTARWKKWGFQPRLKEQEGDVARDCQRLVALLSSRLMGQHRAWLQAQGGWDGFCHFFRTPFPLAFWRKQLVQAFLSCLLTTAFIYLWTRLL
Lytic switch protein BZLF1, sequence (P03206 whole entry): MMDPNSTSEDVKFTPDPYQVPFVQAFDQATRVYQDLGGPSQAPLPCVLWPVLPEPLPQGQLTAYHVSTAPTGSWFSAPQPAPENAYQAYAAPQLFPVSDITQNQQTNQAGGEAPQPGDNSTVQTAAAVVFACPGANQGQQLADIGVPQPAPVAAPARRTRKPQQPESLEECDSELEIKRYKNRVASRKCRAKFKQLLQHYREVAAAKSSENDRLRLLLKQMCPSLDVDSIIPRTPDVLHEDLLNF
Epstein-Barr nuclear antigen 1, sequence (P03211 whole entry): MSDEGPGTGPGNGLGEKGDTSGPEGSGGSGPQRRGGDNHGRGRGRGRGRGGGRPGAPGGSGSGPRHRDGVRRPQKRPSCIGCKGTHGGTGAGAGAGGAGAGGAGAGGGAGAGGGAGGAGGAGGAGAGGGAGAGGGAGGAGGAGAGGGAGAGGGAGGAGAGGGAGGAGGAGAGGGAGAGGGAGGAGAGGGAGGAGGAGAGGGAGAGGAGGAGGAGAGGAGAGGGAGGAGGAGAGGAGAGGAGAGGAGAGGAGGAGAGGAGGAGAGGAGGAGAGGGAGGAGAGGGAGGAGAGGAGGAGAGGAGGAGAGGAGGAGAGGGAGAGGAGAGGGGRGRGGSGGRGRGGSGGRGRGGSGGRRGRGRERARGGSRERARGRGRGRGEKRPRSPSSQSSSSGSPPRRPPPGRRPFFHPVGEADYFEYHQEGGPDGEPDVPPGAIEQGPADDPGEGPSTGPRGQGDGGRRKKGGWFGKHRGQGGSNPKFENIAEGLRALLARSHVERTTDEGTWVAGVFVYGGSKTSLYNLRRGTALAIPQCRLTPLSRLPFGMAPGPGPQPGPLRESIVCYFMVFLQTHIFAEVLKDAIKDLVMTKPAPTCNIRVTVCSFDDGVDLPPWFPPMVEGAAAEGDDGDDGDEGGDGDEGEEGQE

## CCOC(=O)c1ccc(NC(=O)C2CC(=O)Nc3nc4ccccc4n32)cc1 (configuration not stated)
[1]
  IC50: > 5.47 µM (active)
[2]
  IC50: > 50 µM (not active)
[3]
  IC50: > 111 µM (not active)

## Clc1ccc(C2C=C(c3ccccc3)Nc3ncnn32)cc1 (configuration not stated)
Bcl-2-like protein 10
  EC50: 14.2 µM (active)

## COC(=O)c1ccc(CSc2nc3c(cnn3-c3ccc(F)cc3)c(=O)[nH]2)o1
Estrogen receptor
  EC50: 12.9 µM (not active)
[4]
  IC50: > 47.1 µM (inactive)
[5]
  EC50: > 53 µM (inactive)
